According to patent US9422254B2, “Methoxyacrylate-based fungicide and methods for preparing and using the same” (priority 2008, dated 2016):

System: Pseudoperonospora cubensis
Assay: Fungicidal activity on potted cucumber, downy mildew
Format: in vivo
Description: 1. Fungicidal Activity Assay on Potted Plants at Room Temperature
Take cucumber downy mildew and powdery mildew as examples, the assay were carried out as follows:
1) Pseudoperonospora cubensis: Pathogen of Cucumber Downy Mildew
Two cucumber seedlings (the growing point had been removed) having the same growth status and in the true leaf stage were collected, sprayed with the compound of Formula (I), and dried naturally for 24 hrs for inoculation. Fresh cucumber leaves infected by downy mildew were collected, and sporangium on the back was rinsed with distilled water (about 10° C.) dipped with a brush. The obtained sporangium was prepared into a suspension (2-3×10^5 cells/mL). The suspension was sprayed uniformly with an inoculation sprayer (0.1 MPa) to the naturally-dried cucumber seedlings. Subsequently, the seedlings were cultured in an artificial climate chamber. The relative humidity was maintained at 100%, with temperature of between 15 and 20° C. 24 hrs later, the relative humidity was maintained at 90%, with temperature of between 15 and 24° C. 5 days later, compared with the control, the disease of the cucumber seedlings was graded. Based on the resultant disease index, the efficacy was calculated.
The grading standard follows “Guidelines on efficacy evaluation of pesticides”, and the efficacy is calculated on the basis of the disease index.

[1] = Pseudoperonospora cubensis, secondary screening

SMILES: CO/C=C(/C(=O)OC)c1ccccc1CSc1nc2cc(OC)ccc2s1 [Compound of Formula (I), (E)-methyl 3-methoxy-2-(2-((5-methoxy-benzothiazol-2-ylthio)methyl)phenyl)acrylate]
- Efficacy (%) (3.125 mg/L, secondary screening): 69.92%
- Efficacy (%) (6.25 mg/L, secondary screening): 82.89%
- Efficacy (%) (12.5 mg/L, Table 1): 87.34%
- Efficacy (%) (12.5 mg/L, secondary screening): 91.50%
- Efficacy (%) (25 mg/L, Table 1): 94.16%
- Efficacy (%) (25 mg/L, secondary screening): 98.15%
- Efficacy (%) (50 mg/L, Table 1): 100%
- Efficacy (%) (50 mg/L, secondary screening): 100%
- Efficacy (%) (100 mg/L, Table 1): 100%
- Efficacy (%) (200 mg/L, Table 1): 100%
- EC50 [1]: 1.52 µg/mL
- EC90 [1]: 9.76 µg/mL
- preventive effect (downy mildew): good preventive effect
